Data from patent US20250051316A1, “2-(ARYL-2-YL) […] […], PREPARATION METHOD THEREFOR AND APPLICATION THEREOF” (SHANGHAI HANSOH BIOMEDICAL CO., LTD., priority 2021, published 2025).

Molecular target: T1, ADRA1A receptor (Homo sapiens, UniProt P35348)
T1 construct: expressed in transfected cells
T1 sequence (P35348 1-466): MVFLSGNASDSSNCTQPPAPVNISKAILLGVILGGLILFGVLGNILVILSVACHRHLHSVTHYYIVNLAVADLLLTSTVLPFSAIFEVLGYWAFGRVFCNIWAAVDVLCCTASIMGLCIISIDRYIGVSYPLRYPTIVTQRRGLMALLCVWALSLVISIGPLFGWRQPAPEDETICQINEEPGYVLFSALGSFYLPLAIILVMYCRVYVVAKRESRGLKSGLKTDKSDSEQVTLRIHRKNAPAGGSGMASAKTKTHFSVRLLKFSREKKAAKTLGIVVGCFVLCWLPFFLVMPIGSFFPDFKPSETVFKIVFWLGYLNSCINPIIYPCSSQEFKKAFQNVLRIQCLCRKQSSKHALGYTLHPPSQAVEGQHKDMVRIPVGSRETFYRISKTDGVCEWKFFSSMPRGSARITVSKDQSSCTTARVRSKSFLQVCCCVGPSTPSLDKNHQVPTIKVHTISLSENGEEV
Test: Effect on calcium current in cells which stably express ADRA1A receptor
Assay type: cell-based
Protocol: Test Example 4. Determination of the Effect of the Present Compounds on Calcium Current in the Cells which Stably Express ADRA1A Receptor
Determination of the activation effect of the compounds on ADRA1A receptors.
1) Flp In-CHO-ADRA1A Stable Pool cell lines were cultured in complete medium at 37° C., 5% CO2 to 70%-90% fusion.
2) Complete culture medium: Ham's F12K+10% FBS+1*Penicillin−Streptomycin+600 μg/mL Hygromycin B; Cell inoculation medium: Ham's F12K++10% FBS; Experimental buffer: 1×HBSS+20 mM HEPES
3) After TrypLE digestion, the cells were re-suspended in the inoculation medium and inoculated in 384 well cell culture plate (Corning, 3764). 7000 cells were inoculated into each well and incubated overnight at 37° C. and 5% CO2.
4) 20× Component A was freeze-thaw to room temperature, and then diluted with experimental buffer to 2× working concentration including 5 mM Probenecid, which was then placed at room temperature for use.
5) The cell culture plate was taken out, and let to stand at room temperature for 10 minutes. The plate was subject to inverted centrifugation at 200 g, and RT centrifugation for 1 second, and then 20 μL Assay buffer was quickly added to the cell culture plate. Then 20 μL 2× Component A containing 5 mM Probenecid was added to each experimental well, which was centrifuged by RT at 200 g for 3-5 seconds, and incubated at 37° C. for 2 hours.
6) The working solution (5×) for the compound to be tested was prepared and placed and at room temperature for use.
7) The cell culture plate was taken out and let to stand at room temperature for 10 minutes.
8) 10 μL diluteSd compound working solution in step 6) was added to each the experimental well using FLIPR Tetra and data were collected.
[formula] • 5) EC50 of the compounds was calculated by GraphPad nonlinear fitting formula:
[formula] • X: Log value of the compound concentration; Y: Activation %

Row | Structure (SMILES) | EC50 [nM]
1 | [2H]C1([2H])COC(c2cccc(C)n2)CN1 (single isomer, unassigned) [Example 10-2, 2-(6-Methylpyridin-2-yl)morpholin-5,5-d2] | 1170
2 | [2H]C1([2H])CO[C@@H](c2ccc(F)cn2)CN1 (single isomer, unassigned) [Example 17-2, 2-(5-fluoropyridin-2-yl)morpholin-5,5-d2] | 3170
3 | [2H]C1([2H])CO[C@H](c2ccc(F)cc2)CN1 (single isomer, unassigned) [Example 33-1, 2-(4-Fluorophenyl)morpholin-5,5-d2] | 1410
